# Test results from patent publication US20110305637A1, “RADIOLABELLED PDE10 LIGANDS” (Janssen Pharmaceutica N.V., priority 2009, published 2011).
# Target: T1, PDE10A (Rattus norvegicus, UniProt Q9QYJ6)
# T1 construct: from tissue; host or cells: brain (striatum) of living male Wistar rats, in vivo microPET
# T1 sequence (Q9QYJ6 1-794): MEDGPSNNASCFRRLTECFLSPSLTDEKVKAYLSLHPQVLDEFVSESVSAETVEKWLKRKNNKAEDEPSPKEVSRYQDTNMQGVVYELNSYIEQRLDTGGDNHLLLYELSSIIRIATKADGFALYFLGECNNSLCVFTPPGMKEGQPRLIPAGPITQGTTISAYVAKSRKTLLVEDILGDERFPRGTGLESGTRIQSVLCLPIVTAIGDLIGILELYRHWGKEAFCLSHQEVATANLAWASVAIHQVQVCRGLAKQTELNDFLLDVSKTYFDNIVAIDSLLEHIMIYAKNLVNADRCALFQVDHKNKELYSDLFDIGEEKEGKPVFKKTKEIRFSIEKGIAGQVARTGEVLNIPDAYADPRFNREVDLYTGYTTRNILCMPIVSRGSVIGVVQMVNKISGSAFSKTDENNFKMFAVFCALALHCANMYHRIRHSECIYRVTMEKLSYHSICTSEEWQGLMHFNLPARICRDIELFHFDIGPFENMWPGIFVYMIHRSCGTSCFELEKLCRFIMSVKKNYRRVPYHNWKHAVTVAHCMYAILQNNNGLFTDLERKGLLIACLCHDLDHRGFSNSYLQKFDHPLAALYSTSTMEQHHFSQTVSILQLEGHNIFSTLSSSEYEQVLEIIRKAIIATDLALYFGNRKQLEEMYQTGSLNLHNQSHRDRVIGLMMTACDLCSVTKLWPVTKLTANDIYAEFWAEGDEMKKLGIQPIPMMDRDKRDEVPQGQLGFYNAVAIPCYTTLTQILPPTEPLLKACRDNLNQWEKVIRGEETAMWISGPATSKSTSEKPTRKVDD
# Assay: microPET imaging study
# Format: in vivo
# Experimental: (§1) Imaging experiments were performed on a Focus™ 220 microPET scanner (Concorde Microsystems, Knoxville, Tenn., USA) using male Wistar rats with body weight between 200 and 300 g. Animals were injected with about 74 MBq of high specific activity formulation of [^18F]B-1 via tail vein under anesthesia (2.5% Isoflurane in O2 at 1 L/min flow rate). Dynamic scans of 90 min were acquired in List mode. Acquisition data were Fourier rebinned in different time frames (4×15 s, 4×1 min, 5×3 min, 14×5 min) and reconstructed with Filtered Back Projection (FBP). An average image (frame 1 to 27) of the reconstructed data was spatially normalized to an in-house created [^11C]raclopride template of the rat brain in Paxinos coordinates. The affine transformation was then used to normalize all time frames of the dynamic dataset to allow automated and symmetric volumes of interest (VOIs) analyses. Time-activity curves (TAC) were generated for striatum, cortex and cerebellum for each individual scan, using PMOD software (v 3.0, PMOD Technologies Ltd., Zurich, Switzerland). The radioactivity concentration in the different brain regions was expressed as standardized uptake value (SUV) as a function of time p.i. of the radiotracer by normalization for body weight of the animal and injected dose. Since PDE10A is expressed at low level in the cerebellum, binding potential (BP) values were calculated using the multilinear reference tissue model developed by Ichise et al. with the cerebellum considered as reference, using the same software (PMOD). Rats (n=5) were used for baseline imaging of which 3 animals were used in pretreatment studies in which the non-radioactive analogue B-1 was administered subcutaneously at a dose of 5 mg/kg at 30 min prior to the radiotracer injection.
# Imaging experiments were performed on a Focus™ 220 microPET scanner (Concorde Microsystems, Knoxville, Tenn., USA) using male Wistar rats with body weight between 350 and 480 g. For the baseline microPET study, rats (n=2) were injected with about 74 MBq of high specific activity formulation of [^18F]B-2 via tail vein under anesthesia (2.5% Isoflurane in O2 at 1 L/min flow rate). For the pretreatment experiment, the radioactivity dose was reduced to about 37 MBq. Pretreatment was done by administering the non-radioactive analogue B-2 subcutaneously at a dose of 2.5 mg/kg at 60 min prior to the tracer injection (n=1).
# as §1, with “Dynamic” for “Imaging experiments were performed on a Focus™ 220 microPET scanner (Concorde Microsystems, Knoxville, Tenn., USA) using male Wistar rats with body weight between 200 and 300 g. Animals were injected with about 74 MBq of high specific activity formulation of [^18F]B-1 via tail vein under anesthesia (2.5% Isoflurane in O2 at 1 L/min flow rate). Dynamic”, “120” for “90”, “8×5 min, 10×6” for “14×5”, “31)” for “27)”, “(PMOD).” for “(PMOD). Rats (n=5) were used for baseline imaging of which 3 animals were used in pretreatment studies in which the non-radioactive analogue B-1 was administered subcutaneously at a dose of 5 mg/kg at 30 min prior to the radiotracer injection.”
smiles,measurement,setting,value
[18F]CCCn1cc(-c2ccncc2)c(-c2ccc(OCc3ccc4ccccc4n3)cc2)n1 [[^18F]B-1],binding potential (BP) value after non-radioactive analogue,"B-1, 5 mg/kg s.c., 30 min prior to tracer",0.11±0.10
same,time at which peak tissue concentrations in the brain were reached,baseline,within one minute
same,Peak striatum-to-cerebellum ratio,"baseline, at 15 min post injection",2.7
same,striatum-to-cerebellum ratio,"baseline, until about 35 min post injection",higher than 2.5
same,binding potential (BP) value at baseline,"baseline, cerebellum as reference",0.58±0.17
same,reduction in BP values with pretreatment compared to baseline,"non-radioactive B-1, 5 mg/kg s.c., 30 min prior",about 80%
same,striatum-to-cerebellum ratio after pre-treatment,"pre-treated with non-radioactive B-1, 5 mg/kg s.c., 30 min prior",1.5
